From paper doi:10.1101/2025.06.30.662286v4 (biorxiv, 2026)
Read-outs that look alike come from different tables or passages of the source. One block for each compound: values may come before it.

Tests used:
[1] = biological target: sc-apCC-4-DPH (highest-affinity DPH binder of Fig. 2; sc-apCC-4-DPH-1 or sc-apCC-4-DPH-2); assay: fluorescence intensity saturation binding; design: species or system synthetic construct; settings: PBS pH 7.4, 10% v/v MeCN, 0.5 μM DPH, 0-60 μM protein
[2] = biological target: sc-apCC-6-NR (S, specific binder); assay: fluorescence saturation binding; design: species or system synthetic construct; settings: PBS pH 7.4, 10% v/v MeCN, 0.5 μM ligand, 0-60 μM protein
[3] = biological target: sc-apCC-6-DPH-NR (P, promiscuous binder); assay: fluorescence saturation binding; design: species or system synthetic construct; settings: PBS pH 7.4, 10% v/v MeCN, 0.5 μM ligand, 0-60 μM protein
[4] = biological target: sc-apCC-4-SN38-1; assay: fluorescence saturation binding; design: species or system synthetic construct
[5] = biological target: sc-apCC-4-NR-1; assay: fluorescence intensity saturation binding; design: species or system synthetic construct; settings: PBS pH 7.4, 10% v/v MeCN, 0.5 μM Nile red, 0-60 μM protein
[6] = biological target: sc-apCC-4-SN38-1; assay: fluorescence saturation binding; design: species or system synthetic construct; settings: ABS pH 4, 10% v/v DMSO, 1 μM SN38, 0-480 μM protein
[7] = biological target: sc-apCC-4-LMF-1; settings: PBS pH 7.4, 10% v/v DMSO, 1 μM lumiflavin, 0-480 μM protein

- Kd [1]: 1200 ± 100 nM
- Kd [2]: > 20000 nM
- Kd [3]: 1900 ± 200 nM
Structure (SMILES): C(=CC=Cc1ccccc1)C=Cc1ccccc1 [DPH, 1,6-diphenyl-1,3,5-hexatriene]

- Kd ([4]; read-out: KD,Nile blue): ~400 nM
Structure (SMILES): CCN(CC)c1ccc2nc3c4ccccc4c(=N)cc-3oc2c1 [Nile blue]

- Kd [2]: 110 ± 40 nM
- Kd ([4]; read-out: KD,Nile Red): ~200 nM
- Kd [3]: 2200 ± 200 nM
- Kd [5]: 2400 ± 100 nM
Structure (SMILES): CCN(CC)c1ccc2nc3c4ccccc4c(=O)cc-3oc2c1 [Nile red]

- Kd [6]: 7800 ± 600 nM
Structure (SMILES): CCc1c2c(nc3ccc(O)cc13)-c1cc3c(c(=O)n1C2)COC(=O)[C@]3(O)CC [SN38]

Structure (SMILES): Cc1cc2nc3c(=O)[nH]c(=O)nc-3n(C)c2cc1C [lumiflavin]
- Kd [7]: > 50000 nM
